≈ marks a conversion by molar mass, not a printed value. Where two headings read alike, the source gives them in different places.
Legend:
[1] = test system: Mycobacterium tuberculosis; settings: cited from earlier work; for MIC90: Mycobacterium tuberculosis, strain not stated, Kaushik et al. 2015 cited after the table
Enterococcus faecalis = assay: MIC90 broth microdilution; assay type: cell-based; settings: for MIC90: Enterococcus faecalis
Staphylococcus aureus = assay: MIC90 broth microdilution; assay type: cell-based; settings: for MIC90: Staphylococcus aureus
Mycobacterium abscessus = assay: MIC90 broth microdilution; assay type: cell-based; settings: for MIC90: Mycobacteroides abscessus
[2] = test system: Acinetobacter baumannii ATCC 19606; assay: MIC90 broth microdilution; assay type: cell-based; settings: ATCC19606
E. faecalis [3] = assay: Checkerboard titration assay (drug-drug interaction); assay type: cell-based, Enterococcus faecalis; settings: combined with biapenem, faropenem and tebipenem
Mtb H37Rv = assay: Minimum bactericidal concentration (MBC99.9); assay type: cell-based, Mycobacterium tuberculosis
[4] = test system: Mycobacterium tuberculosis H37Rv; assay: MIC90 broth macrodilution; assay type: cell-based
E. faecalis [5] = assay: Minimum bactericidal concentration (MBC99.9); assay type: cell-based, Enterococcus faecalis; settings: up to 8 times MIC90
[6] = test system: Acinetobacter baumannii ACBA; assay: MIC90 broth microdilution; assay type: cell-based
S. aureus [7] = assay: Minimum bactericidal concentration (MBC99.9); assay type: cell-based, Staphylococcus aureus; settings: up to 8 times MIC90
Enterobacter cloacae = assay: MIC90 broth microdilution; assay type: cell-based; settings: for MIC90: Enterobacter cloacae
Mycobacterium avium = assay: MIC90 broth microdilution; assay type: cell-based; settings: for MIC90: Mycobacterium avium
Mtb = assay: Checkerboard titration assay (drug-drug interaction); assay type: cell-based, Mycobacterium tuberculosis; settings: combined with isoniazid or rifampicin
S. aureus [8] = assay: as above; assay type: cell-based, Staphylococcus aureus; settings: combined with biapenem, faropenem and tebipenem
Klebsiella pneumoniae = assay: MIC90 broth microdilution; assay type: cell-based; settings: for MIC90: Klebsiella pneumoniae
[9] = test system: Acinetobacter baumannii 6M-1b; assay: MIC90 broth microdilution; assay type: cell-based
E. faecalis [10] = assay type: cell-based, Enterococcus faecalis
S. aureus [11] = assay type: cell-based, Staphylococcus aureus
Pseudomonas aeruginosa = assay: MIC90 broth microdilution; assay type: cell-based; settings: for MIC90: Pseudomonas aeruginosa
S. aureus [12] = settings: Zurenko et al. 1996; cited from earlier work
[13] = Mycobacterium abscessus, read-out: MIC90
[14] = Acinetobacter baumannii ATCC 19606, read-out: MIC90
[15] = Mycobacterium tuberculosis H37Rv, read-out: MIC90
[16] = Acinetobacter baumannii ACBA, patient isolate
[17] = Acinetobacter baumannii ACBA, patient isolate, read-out: MIC90
[18] = Acinetobacter baumannii 6M-1b, environmental isolate

Compound: C[C@@H](O)[C@H]1C(=O)N2C(C(=O)[O-])=C(SC3Cn4cnc[n+]4C3)[C@H](C)[C@H]12 (some centres unmarked) [Biapenem]
- MIC90 [1]: 2.5 to 5.0 µg/mL
- MIC90 (Enterococcus faecalis; read-out: MIC90): 0.25 to 0.5 µg/mL (≈ 0.713 to 1.43 µM)
- MIC90 (Staphylococcus aureus; read-out: MIC90): 0.007 to 0.015 µg/mL (≈ 0.02 to 0.0428 µM)

Compound: CC(=O)NC[C@H]1CN(c2ccc3c(c2)Oc2ccccc2O3)C(=O)O1 [Compound T145]
- activity against growth (in words) (Mycobacterium abscessus): no activity
- MIC90 (Mycobacterium abscessus): > 64 µg/mL
- MIC90 ([2]; Acinetobacter baumannii): 32 to 64 µg/mL (≈ 94 to 188 µM)
- drug-drug interaction (synergy, indifference, antagonism) (E. faecalis [3]): indifferent
- bactericidal or bacteriostatic activity (Mtb H37Rv; Mtb, 1, 2, 4 and 8 times MIC90): bactericidal activity
- MBC (Mtb H37Rv; Mycobacterium tuberculosis, Mtb H37Rv): 2 µg/mL (≈ 5.88 µM)
- MIC90 ([4]; Mycobacterium tuberculosis, H37RV): 0.5 to 1 µg/mL (≈ 1.47 to 2.94 µM)
- bactericidal or bacteriostatic activity (E. faecalis [5]): bacteriostatic
- MIC90 [6]: >64 µg/mL
- MIC90 ([6]; Acinetobacter baumannii): > 64 µg/mL
- bactericidal or bacteriostatic activity (S. aureus [7]): bacteriostatic
- activity against growth (in words) (Enterobacter cloacae): no activity
- MIC90 (Enterobacter cloacae): > 64 µg/mL
- activity against growth (in words) (Mycobacterium avium): no activity
- MIC90 (Mycobacterium avium): > 64 µg/mL
- drug-drug interaction (synergy, indifference, antagonism) (Mtb): indifferent
- drug-drug interaction (synergy, indifference, antagonism) (S. aureus [8]): indifferent
- activity against growth (in words) (Klebsiella pneumoniae): no activity
- MIC90 (Klebsiella pneumoniae): > 64 µg/mL
- MIC90 [9]: 0.25 to 0.50 µg/mL
- MIC90 ([9]; Acinetobacter baumannii, 6M1B): 0.25 to 4 µg/mL (≈ 0.735 to 11.8 µM)
- selection of spontaneous resistant mutants (E. faecalis [10]): failed to produce distinct colonies
- activity against growth (in words) (Enterococcus faecalis): potent activity
- MIC90 (Enterococcus faecalis): 0.25 to 0.5 µg/mL (≈ 0.735 to 1.47 µM)
- selection of spontaneous resistant mutants (S. aureus [11]): failed to produce distinct colonies
- activity against growth (in words) (Pseudomonas aeruginosa): no activity
- MIC90 (Pseudomonas aeruginosa): > 64 µg/mL
- activity against growth (in words) (Staphylococcus aureus): potent activity
- MIC90 (Staphylococcus aureus): 0.5 to 1 µg/mL (≈ 1.47 to 2.94 µM)

Compound: COc1cccc2c1Oc1ccc(N3C[C@H](CNC(C)=O)OC3=O)cc1O2 [Compound T197, (S)—N-((3-(6-methoxydibenzo[b,e][1,4]dioxin-2-yl)-2-oxooxazolidin-5-yl)methyl)acetamide]
- MIC90 (Mycobacterium abscessus; [13]): > 64 µg/mL
- MIC90 [2, 14]: > 64 µg/mL
- MIC90 [4, 15]: 8 to 16 µg/mL (≈ 21.6 to 43.2 µM)
- MIC90 [6, 16]: >64 µg/mL
- MIC90 [6, 17]: > 64 µg/mL
- MIC90 (Enterobacter cloacae; read-out: MIC90): > 64 µg/mL
- MIC90 (Mycobacterium avium; read-out: MIC90): > 64 µg/mL
- MIC90 (Klebsiella pneumoniae; read-out: MIC90): > 64 µg/mL
- MIC90 (Enterococcus faecalis; read-out: MIC90): 8 to 16 µg/mL (≈ 21.6 to 43.2 µM)
- MIC90 (Pseudomonas aeruginosa; read-out: MIC90): > 64 µg/mL
- MIC90 (Staphylococcus aureus; read-out: MIC90): 16 to 32 µg/mL (≈ 43.2 to 86.4 µM)

Compound: C[C@@H](O)[C@H]1C(=O)N2C(C(=O)O)=C([C@H]3CCCO3)S[C@H]12 [Faropenem]
- MIC90 [1]: 2.5 to 5.0 µg/mL
- MIC90 (Enterococcus faecalis; read-out: MIC90): 0.25 to 0.5 µg/mL (≈ 0.876 to 1.75 µM)
- MIC90 (Staphylococcus aureus; read-out: MIC90): 0.015 to 0.03 µg/mL (≈ 0.0526 to 0.105 µM)

Compound: CC(=O)NC[C@H]1CN(c2ccc(N3CCOCC3)c(F)c2)C(=O)O1 [Linezolid, reference compound]
- MIC90 [2, 14]: > 64 µg/mL
- MIC90 [4, 15]: 0.2 to 2 µg/mL (≈ 0.593 to 5.93 µM)
- MIC90 [6, 16]: >64 µg/mL
- MIC90 [6, 17]: > 64 µg/mL
- MIC90 (Enterobacter cloacae; read-out: MIC90): > 64 µg/mL
- MIC90 of linezolid ([1]; Mtb, Rodriguez et al. 2002): 0.5 to 2.0 µg/mL
- MIC90 (Klebsiella pneumoniae; read-out: MIC90): 16 to 32 µg/mL (≈ 47.4 to 94.9 µM)
- MIC90 [9, 18]: 0.25 to 0.50 µg/mL
- MIC90 ([9]; Acinetobacter baumannii, 6M1B, Acinetobacter baumannii 6M-1b, environmental isolate, read-out: MIC90): 0.25 to 4 µg/mL (≈ 0.741 to 11.9 µM)
- MIC90 (Enterococcus faecalis; read-out: MIC90): 1 to 2 µg/mL (≈ 2.96 to 5.93 µM)
- bactericidal or bacteriostatic activity (S. aureus [12]): bacteriostatic activity
- MIC90 (Pseudomonas aeruginosa; read-out: MIC90): > 64 µg/mL
- MIC90 (Staphylococcus aureus; read-out: MIC90): 1 to 2 µg/mL (≈ 2.96 to 5.93 µM)

Compound: C[C@@H](O)[C@H]1C(=O)N2C(C(=O)O)=C(S[C@@H]3CN[C@H](C(=O)N(C)C)C3)[C@H](C)[C@H]12 [Meropenem, reference compound]
- MIC90 (Mycobacterium abscessus; [13]): > 64 µg/mL
- MIC90 [2, 14]: > 64 µg/mL
- MIC90 [4, 15]: 4 to 8 µg/mL (≈ 10.4 to 20.9 µM)
- MIC90 [6, 16]: >64 µg/mL
- MIC90 [6, 17]: > 64 µg/mL
- MIC90 (Enterobacter cloacae; read-out: MIC90): 0.13 to 0.25 µg/mL (≈ 0.339 to 0.652 µM)
- MIC90 (Mycobacterium avium; read-out: MIC90): > 64 µg/mL
- MIC90 (Klebsiella pneumoniae; read-out: MIC90): < 0.06 µg/mL
- MIC90 [9, 18]: 1 to 2 µg/mL
- MIC90 (Enterococcus faecalis; read-out: MIC90): 4 to 8 µg/mL (≈ 10.4 to 20.9 µM)
- MIC90 (Pseudomonas aeruginosa; read-out: MIC90): 0.25 to 0.5 µg/mL (≈ 0.652 to 1.3 µM)
- MIC90 (Staphylococcus aureus; read-out: MIC90): 0.06 to 0.13 µg/mL (≈ 0.156 to 0.339 µM)

Compound: C[C@@H](O)[C@H]1C(=O)N2C(C(=O)O)=C(SC3CN(C4=NCCS4)C3)[C@H](C)[C@H]12 [Tebipenem]
- MIC90 [1]: 1.25 to 2.5 µg/mL
- MIC90 (Enterococcus faecalis; read-out: MIC90): 0.25 to 0.5 µg/mL (≈ 0.652 to 1.3 µM)
- MIC90 (Staphylococcus aureus; read-out: MIC90): 0.03 to 0.06 µg/mL (≈ 0.0782 to 0.156 µM)

Source: US10870646B2, “Oxazolidinones and pharmaceutical compositions thereof for treating bacterial infections, including infection of Mycobacterium tuberculosis” (University of St. Thomas, priority 2017, dated 2020)
